Test results as given in ChEMBL document CHEMBL4630905 (2021).

How the values were obtained:
[1] = molecular target: 5-hydroxytryptamine receptor 5A (Homo sapiens) (UniProt P47898); details: Compound concentration 10.0 uM
[2] = molecular target: Muscarinic acetylcholine receptor M2 (Homo sapiens) (UniProt P08172); details: Compound concentration 10.0 uM
[3] = molecular target: D(1B) dopamine receptor (Homo sapiens) (UniProt P21918); details: Compound concentration 10.0 uM
[4] = molecular target: Beta-2 adrenergic receptor (Homo sapiens) (UniProt P07550); details: Compound concentration 10.0 uM
Sequence of Beta-2 adrenergic receptor (Homo sapiens) (P07550 whole entry, looked up): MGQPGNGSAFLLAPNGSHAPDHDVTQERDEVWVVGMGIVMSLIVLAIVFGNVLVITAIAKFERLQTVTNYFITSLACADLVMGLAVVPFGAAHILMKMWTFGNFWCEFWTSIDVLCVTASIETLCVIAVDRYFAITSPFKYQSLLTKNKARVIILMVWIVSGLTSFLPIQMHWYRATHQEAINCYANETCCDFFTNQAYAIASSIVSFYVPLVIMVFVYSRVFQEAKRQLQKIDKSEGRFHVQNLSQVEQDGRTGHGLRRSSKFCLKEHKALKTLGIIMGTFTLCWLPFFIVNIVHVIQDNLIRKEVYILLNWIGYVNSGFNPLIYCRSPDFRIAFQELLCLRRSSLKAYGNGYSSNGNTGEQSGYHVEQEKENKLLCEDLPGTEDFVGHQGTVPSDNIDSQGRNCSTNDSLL

[5] = molecular target: Sigma intracellular receptor 2 (Homo sapiens) (UniProt Q5BJF2); details: Compound concentration 10.0 uM
[6] = molecular target: Histamine H3 receptor (Homo sapiens) (UniProt Q9Y5N1); details: Compound concentration 10.0 uM
[7] = molecular target: Beta-3 adrenergic receptor (Homo sapiens) (UniProt P13945); details: Compound concentration 10.0 uM
[8] = molecular target: Alpha-1D adrenergic receptor (Homo sapiens) (UniProt P25100); details: Compound concentration 10.0 uM
Rattus norvegicus = species: Rattus norvegicus; details: Compound concentration 10.0 uM
[9] = molecular target: Beta-1 adrenergic receptor (Homo sapiens) (UniProt P08588); details: Compound concentration 10.0 uM
Sequence of Beta-1 adrenergic receptor (Homo sapiens) (P08588 whole entry, looked up): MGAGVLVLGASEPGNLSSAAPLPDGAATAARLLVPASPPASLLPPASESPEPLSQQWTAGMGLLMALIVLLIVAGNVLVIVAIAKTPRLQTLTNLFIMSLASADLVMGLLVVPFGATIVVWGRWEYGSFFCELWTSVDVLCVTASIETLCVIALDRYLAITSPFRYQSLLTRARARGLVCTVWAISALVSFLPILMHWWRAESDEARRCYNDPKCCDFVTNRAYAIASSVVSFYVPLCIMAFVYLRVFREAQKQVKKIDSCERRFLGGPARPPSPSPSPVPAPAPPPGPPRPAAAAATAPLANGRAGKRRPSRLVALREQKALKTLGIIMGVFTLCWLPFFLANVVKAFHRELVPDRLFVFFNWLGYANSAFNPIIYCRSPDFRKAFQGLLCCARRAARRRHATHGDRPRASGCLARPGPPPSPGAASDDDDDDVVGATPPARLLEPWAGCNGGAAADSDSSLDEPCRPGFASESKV

[10] = molecular target: 5-hydroxytryptamine receptor 2C (Homo sapiens) (UniProt P28335); details: Compound concentration 10.0 uM
[11] = molecular target: T1, Bromodomain testis-specific protein (Homo sapiens, UniProt Q58F21); experiment: BET mutant TR-FRET assay (BRDT BD1)
[12] = molecular target: 5-hydroxytryptamine receptor 2A (Homo sapiens) (UniProt P28223); details: Compound concentration 10.0 uM
[13] = molecular target: T2, Bromodomain-containing protein 3 (Homo sapiens, UniProt Q15059); experiment: BET mutant TR-FRETassay (BRD3 BD1)
T2 sequence (Q15059 2-726 limits assumed, change not shown): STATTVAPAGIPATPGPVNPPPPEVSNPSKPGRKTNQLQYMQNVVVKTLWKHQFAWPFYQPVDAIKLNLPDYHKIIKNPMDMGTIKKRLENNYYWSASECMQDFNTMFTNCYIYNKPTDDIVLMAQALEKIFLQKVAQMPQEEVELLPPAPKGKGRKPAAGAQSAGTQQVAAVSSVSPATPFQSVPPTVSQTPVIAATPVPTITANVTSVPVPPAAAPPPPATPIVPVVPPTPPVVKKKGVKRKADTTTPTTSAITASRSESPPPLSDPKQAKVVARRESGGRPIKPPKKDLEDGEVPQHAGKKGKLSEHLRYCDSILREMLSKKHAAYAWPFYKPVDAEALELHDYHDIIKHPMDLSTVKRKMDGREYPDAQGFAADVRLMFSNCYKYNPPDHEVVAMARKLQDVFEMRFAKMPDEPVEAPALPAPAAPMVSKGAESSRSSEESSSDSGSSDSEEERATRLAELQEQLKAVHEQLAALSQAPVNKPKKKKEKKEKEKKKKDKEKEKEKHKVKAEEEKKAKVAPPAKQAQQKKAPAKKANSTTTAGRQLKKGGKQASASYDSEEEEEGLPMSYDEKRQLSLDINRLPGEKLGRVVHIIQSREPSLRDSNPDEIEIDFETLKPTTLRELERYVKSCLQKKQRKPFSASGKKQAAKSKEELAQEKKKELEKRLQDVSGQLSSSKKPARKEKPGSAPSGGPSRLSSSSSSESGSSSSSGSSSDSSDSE

[14] = molecular target: Sodium-dependent serotonin transporter (Homo sapiens) (UniProt P31645); details: Compound concentration 10.0 uM
[15] = molecular target: T2, Bromodomain-containing protein 3; experiment: BET mutant TR-FRET assay (BRD3 BD2)
[16] = molecular target: 5-hydroxytryptamine receptor 1A (Homo sapiens) (UniProt P08908); details: Compound concentration 10.0 uM
[17] = molecular target: D(3) dopamine receptor (Homo sapiens) (UniProt P35462); details: Compound concentration 10.0 uM
[18] = molecular target: Muscarinic acetylcholine receptor M1 (Homo sapiens) (UniProt P11229); details: Compound concentration 10.0 uM
[19] = molecular target: Histamine H2 receptor (Homo sapiens) (UniProt P25021); details: Compound concentration 10.0 uM
[20] = molecular target: 5-hydroxytryptamine receptor 1E (Homo sapiens) (UniProt P28566); details: Compound concentration 10.0 uM
[21] = molecular target: Histamine H1 receptor (Homo sapiens) (UniProt P35367); details: Compound concentration 10.0 uM
Sequence of Histamine H1 receptor (Homo sapiens) (P35367 whole entry): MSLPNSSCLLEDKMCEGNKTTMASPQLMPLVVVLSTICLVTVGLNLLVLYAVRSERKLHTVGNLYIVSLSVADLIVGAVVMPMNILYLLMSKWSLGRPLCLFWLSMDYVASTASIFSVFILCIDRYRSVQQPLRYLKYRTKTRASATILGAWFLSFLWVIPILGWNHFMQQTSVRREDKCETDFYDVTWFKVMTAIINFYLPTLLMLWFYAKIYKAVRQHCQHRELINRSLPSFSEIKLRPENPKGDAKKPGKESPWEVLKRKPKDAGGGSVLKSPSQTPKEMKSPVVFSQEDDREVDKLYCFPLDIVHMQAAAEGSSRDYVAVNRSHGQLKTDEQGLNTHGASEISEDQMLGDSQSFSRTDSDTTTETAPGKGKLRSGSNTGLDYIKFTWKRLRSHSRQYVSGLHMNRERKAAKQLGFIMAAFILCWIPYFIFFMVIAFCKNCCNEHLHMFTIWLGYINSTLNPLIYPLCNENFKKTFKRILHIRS

[22] = molecular target: 5-hydroxytryptamine receptor 1D (Homo sapiens) (UniProt P28221); details: Compound concentration 10.0 uM
Sequence of 5-hydroxytryptamine receptor 1D (Homo sapiens) (P28221 whole entry): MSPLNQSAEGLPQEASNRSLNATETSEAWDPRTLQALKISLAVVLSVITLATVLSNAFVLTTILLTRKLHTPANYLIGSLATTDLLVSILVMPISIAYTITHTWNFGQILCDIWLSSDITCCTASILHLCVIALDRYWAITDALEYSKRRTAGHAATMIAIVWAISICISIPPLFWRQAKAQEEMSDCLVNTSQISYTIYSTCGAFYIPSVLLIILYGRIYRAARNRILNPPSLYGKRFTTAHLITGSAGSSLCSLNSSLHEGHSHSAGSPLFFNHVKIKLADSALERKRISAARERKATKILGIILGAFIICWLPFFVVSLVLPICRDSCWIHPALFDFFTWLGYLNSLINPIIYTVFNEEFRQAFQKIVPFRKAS

[23] = molecular target: D(1A) dopamine receptor (Homo sapiens) (UniProt P21728); details: Compound concentration 10.0 uM
[24] = molecular target: Alpha-1A adrenergic receptor (Homo sapiens) (UniProt P35348); details: Compound concentration 10.0 uM
Sequence of Alpha-1A adrenergic receptor (Homo sapiens) (P35348 whole entry): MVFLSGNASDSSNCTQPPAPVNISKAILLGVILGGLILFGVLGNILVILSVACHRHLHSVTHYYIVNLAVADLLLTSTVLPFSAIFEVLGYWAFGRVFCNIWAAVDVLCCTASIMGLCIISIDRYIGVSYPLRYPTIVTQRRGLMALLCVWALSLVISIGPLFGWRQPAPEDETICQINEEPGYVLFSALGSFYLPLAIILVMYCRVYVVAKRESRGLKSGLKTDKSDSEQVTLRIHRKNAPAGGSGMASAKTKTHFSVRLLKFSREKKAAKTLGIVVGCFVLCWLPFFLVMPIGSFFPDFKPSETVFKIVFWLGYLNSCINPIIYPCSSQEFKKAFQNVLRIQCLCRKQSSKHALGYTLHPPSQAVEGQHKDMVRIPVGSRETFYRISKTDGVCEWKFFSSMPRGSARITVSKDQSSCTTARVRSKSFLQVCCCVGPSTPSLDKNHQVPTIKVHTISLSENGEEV

[25] = molecular target: D(4) dopamine receptor (Homo sapiens) (UniProt P21917); details: Compound concentration 10.0 uM
[26] = molecular target: T3, GABA-A receptor; anion channel (Rattus norvegicus) (UniProt O09028+P15431+P18506+P18508+P19969+P20236+P23574+P23576+P28471+P28473+P30191+P62813+P63079+P63138+Q91ZM7+Q9ES14); details: Compound concentration 10.0 uM
[27] = molecular target: Muscarinic acetylcholine receptor M4 (Homo sapiens) (UniProt P08173); details: Compound concentration 10.0 uM
[28] = molecular target: Muscarinic acetylcholine receptor M3 (Homo sapiens) (UniProt P20309); details: Compound concentration 10.0 uM
[29] = molecular target: T1, Bromodomain testis-specific protein; experiment: BET mutant TR-FRET assay (BRDT BD2)
[30] = molecular target: Sodium-dependent noradrenaline transporter (Homo sapiens) (UniProt P23975); details: Compound concentration 10.0 uM
[31] = molecular target: T4, Bromodomain-containing protein 2 (Homo sapiens, UniProt P25440); experiment: BET mutant TR-FRET assay (BRD2 BD2)
T4 sequence (P25440 whole entry, looked up, change not shown): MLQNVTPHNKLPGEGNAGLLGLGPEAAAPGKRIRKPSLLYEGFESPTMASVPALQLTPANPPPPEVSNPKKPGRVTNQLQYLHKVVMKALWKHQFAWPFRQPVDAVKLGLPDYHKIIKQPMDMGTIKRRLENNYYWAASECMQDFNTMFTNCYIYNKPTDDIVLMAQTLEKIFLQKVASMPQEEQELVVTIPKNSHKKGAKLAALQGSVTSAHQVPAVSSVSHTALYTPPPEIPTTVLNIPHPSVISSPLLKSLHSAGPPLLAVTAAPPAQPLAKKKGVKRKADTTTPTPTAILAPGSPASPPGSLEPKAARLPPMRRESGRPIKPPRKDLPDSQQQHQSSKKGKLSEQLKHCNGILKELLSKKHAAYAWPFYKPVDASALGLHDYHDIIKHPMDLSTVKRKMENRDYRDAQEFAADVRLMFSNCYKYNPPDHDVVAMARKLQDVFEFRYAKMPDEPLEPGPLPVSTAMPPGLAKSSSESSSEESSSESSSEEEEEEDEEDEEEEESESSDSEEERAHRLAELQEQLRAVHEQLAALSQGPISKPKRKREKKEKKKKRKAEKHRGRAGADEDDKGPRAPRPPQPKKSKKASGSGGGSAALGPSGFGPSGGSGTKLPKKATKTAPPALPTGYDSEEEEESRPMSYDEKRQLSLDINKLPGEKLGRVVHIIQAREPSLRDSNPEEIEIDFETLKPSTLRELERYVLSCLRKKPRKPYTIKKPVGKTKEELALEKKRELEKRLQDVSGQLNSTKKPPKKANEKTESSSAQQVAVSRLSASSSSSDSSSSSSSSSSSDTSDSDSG

[32] = molecular target: T3, GABA-A receptor; anion channel (Rattus norvegicus); details: Compound concentration 10.0 uM; remark: listed apart in the source
[33] = molecular target: 5-hydroxytryptamine receptor 1B (Homo sapiens) (UniProt P28222); details: Compound concentration 10.0 uM
Sequence of 5-hydroxytryptamine receptor 1B (Homo sapiens) (P28222 whole entry): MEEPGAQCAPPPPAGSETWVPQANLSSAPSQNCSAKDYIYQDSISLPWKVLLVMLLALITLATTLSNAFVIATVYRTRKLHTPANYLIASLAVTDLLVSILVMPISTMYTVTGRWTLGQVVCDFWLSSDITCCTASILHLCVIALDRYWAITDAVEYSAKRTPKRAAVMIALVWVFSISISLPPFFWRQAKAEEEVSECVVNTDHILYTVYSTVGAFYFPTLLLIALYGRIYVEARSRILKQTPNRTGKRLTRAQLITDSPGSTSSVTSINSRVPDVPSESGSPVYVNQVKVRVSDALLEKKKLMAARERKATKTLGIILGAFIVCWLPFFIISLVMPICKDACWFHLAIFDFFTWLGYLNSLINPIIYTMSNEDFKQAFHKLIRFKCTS

[34] = molecular target: 5-hydroxytryptamine receptor 3A (Homo sapiens) (UniProt P46098); details: Compound concentration 10.0 uM
[35] = molecular target: Alpha-2A adrenergic receptor (Homo sapiens) (UniProt P08913); details: Compound concentration 10.0 uM
[36] = molecular target: Sodium-dependent dopamine transporter (Homo sapiens) (UniProt Q01959); details: Compound concentration 10.0 uM
[37] = molecular target: Muscarinic acetylcholine receptor M5 (Homo sapiens) (UniProt P08912); details: Compound concentration 10.0 uM
[38] = molecular target: Alpha-2C adrenergic receptor (Homo sapiens) (UniProt P18825); details: Compound concentration 10.0 uM
Sequence of Alpha-2C adrenergic receptor (Homo sapiens) (P18825 whole entry): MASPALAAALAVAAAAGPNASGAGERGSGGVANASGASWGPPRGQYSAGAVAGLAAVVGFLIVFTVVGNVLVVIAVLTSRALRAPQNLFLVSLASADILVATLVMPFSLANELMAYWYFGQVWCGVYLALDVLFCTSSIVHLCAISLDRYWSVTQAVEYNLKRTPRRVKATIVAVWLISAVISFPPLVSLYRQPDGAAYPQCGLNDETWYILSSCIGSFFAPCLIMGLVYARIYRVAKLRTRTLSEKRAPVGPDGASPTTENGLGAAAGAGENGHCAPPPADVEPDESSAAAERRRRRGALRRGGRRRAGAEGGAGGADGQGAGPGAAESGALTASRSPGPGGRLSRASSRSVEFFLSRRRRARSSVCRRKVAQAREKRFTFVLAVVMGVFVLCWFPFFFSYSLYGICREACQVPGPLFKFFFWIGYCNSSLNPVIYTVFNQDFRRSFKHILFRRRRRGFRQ

[39] = molecular target: T4, Bromodomain-containing protein 2; experiment: BET mutant TR-FRET assay (BRD2 BD1)
[40] = molecular target: GABA-A receptor; anion channel; experiment: GPCRScan assay: inhibition of GABAA/BZP; format: protein-complex assay, Rattus norvegicus; set-up: radioligand conc. used [nm] 0.6 – 4.0, parental cells brain tissue
[41] = molecular target: Alpha-2B adrenergic receptor (Homo sapiens) (UniProt P18089); details: Compound concentration 10.0 uM
[42] = molecular target: Alpha-1B adrenergic receptor (Homo sapiens) (UniProt P35368); details: Compound concentration 10.0 uM

Sequence of 5-hydroxytryptamine receptor 5A (Homo sapiens) (P47898 whole entry): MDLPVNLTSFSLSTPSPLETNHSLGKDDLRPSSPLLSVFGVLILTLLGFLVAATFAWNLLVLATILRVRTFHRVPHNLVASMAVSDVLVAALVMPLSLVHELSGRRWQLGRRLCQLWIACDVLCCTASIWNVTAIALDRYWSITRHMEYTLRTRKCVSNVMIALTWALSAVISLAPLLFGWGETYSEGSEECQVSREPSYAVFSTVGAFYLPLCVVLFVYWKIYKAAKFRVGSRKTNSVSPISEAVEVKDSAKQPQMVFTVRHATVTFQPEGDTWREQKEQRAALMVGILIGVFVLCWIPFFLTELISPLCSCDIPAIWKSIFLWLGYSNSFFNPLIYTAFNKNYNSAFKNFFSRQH

Structure (SMILES): Cc1cc2c(-c3ccco3)cnc(N[C@H]3CCN(C)C[C@@H]3C(=O)NC3CCCCC3)c2[nH]c1=O [GSK791]
- inhibition [1]: 10.1%
- inhibition [2]: 5.25%
- inhibition [3]: 35.4%
- inhibition [4]: 4.04%
- inhibition [5]: 44.1%
- inhibition [6]: -2.09%
- inhibition [7]: 35.1%
- inhibition [8]: 7.87%
- inhibition (Rattus norvegicus): -8.18%
- inhibition [9]: 2.98%
- inhibition [10]: 3.86%
- pIC50 [11]: 5.2
- inhibition [12]: 2.71%
- pIC50 [13]: 5.4
- inhibition [14]: 13.8%
- pIC50 [15]: 4.7
- inhibition [16]: 16.9%
- inhibition [17]: 15.5%
- inhibition [18]: 12%
- inhibition [19]: 21.6%
- inhibition [20]: 9.79%
- inhibition [21]: 11.7%
- inhibition [22]: 33.1%
- inhibition [23]: 21.2%
- inhibition [24]: 10.1%
- inhibition [25]: 17.4%
- inhibition [26]: 14.9%
- inhibition [27]: -3%
- inhibition [28]: 28.9%
- pIC50 [29]: 5.1
- inhibition [30]: 32.4%
- pIC50 [31]: 4.8
- inhibition [32]: 86.3%
- inhibition [33]: 1.93%
- inhibition [34]: 1.04%
- inhibition [35]: 9.8%
- inhibition [36]: 8.66%
- inhibition [37]: 7.44%
- inhibition [38]: 10.8%
- pIC50 [39]: 5.6
- Ki [40]: 2540 nM
- inhibition [41]: 28.5%
- inhibition [42]: 1.98%
